One experiment deals with T1, K-Ras G12S (Homo sapiens, UniProt P01116, G12S).
T1 construct: made in house; host or cells: E. coli, e.g. BL21 (DE3)
As to the kind of experiment: PPI-HTRF assay, K-Ras G12S / SOS1 interaction. It counts as biochemical. The conditions noted are these: read-out: PPI-HTRF-5 nM (K-Ras G12S IC50). Summed up: (§1)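 Compounds were tested in duplicate (10 μM to 0.01 μM) for disruption of Ras–SOS1 binding, measured as FRET between anti-GST-Eu on GST-K-Ras and anti-6His-XL665 on His-hSOS1. The buffer was HEPES pH 7.4 with NaCl, DTT, BSA and Igepal. Emission ratios (665/620 nm, excitation 337 nm) read after ≥10 min gave IC50 values.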
(In general: In TR-FRET formats the signal depends on donor and acceptor labels being close together.)

For the next experiment, the target named is T2, K-Ras G12V (Homo sapiens, UniProt P01116, G12V).
T2 construct: made in house; host or cells: E. coli, e.g. BL21 (DE3)
T2 sequence (P01116 1-188 isoform P01116-2 G12V): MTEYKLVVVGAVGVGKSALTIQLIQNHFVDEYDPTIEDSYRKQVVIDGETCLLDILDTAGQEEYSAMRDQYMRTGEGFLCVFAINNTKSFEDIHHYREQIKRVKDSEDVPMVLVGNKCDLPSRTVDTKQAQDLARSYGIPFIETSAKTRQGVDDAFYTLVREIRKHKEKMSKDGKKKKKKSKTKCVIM
As to the kind of experiment: PPI-HTRF assay, K-Ras G12V / SOS1 interaction. It counts as biochemical. The note with it: HTRF, K-Ras G12V; read-out: PPI-HTRF-5 nM (K-Ras G12V IC50). The method, boiled down:
as §1

Another experiment has as its target T3, wildtype K-Ras (Homo sapiens, UniProt P01116).
T3 construct: made in house; host or cells: E. coli, e.g. BL21 (DE3)
The experiment can be described thus: PPI-HTRF assay, wildtype K-Ras / SOS1 interaction. It counts as biochemical. The note with it: HTRF, K-Ras wt; read-out: PPI-HTRF-5 nM (K-Ras wt IC50). Summed up:
as §1

In the next experiment the test system is A549 cells. The experiment can be described thus: Ras cellular assay, cell proliferation A549. It counts as cell-based. The conditions noted are these: Homo sapiens. The method, then: (§2) For example, this assay can be also used to assess selective growth inhibition of a mutant Ras protein relative to a wildtype, or relative to a different mutant Ras protein.
A549 (ATCC CRL-185) and LS123 (ATCC CRL-255) cell lines comprise a G12S mutation and can be used to assess Ras cellular signaling in vitro, e.g., in response to treatment with a compound described herein. A549 culture medium is prepared with RPMI-1640 and 10% heat-inactivated FBS. LS123 culture medium is prepared with RPMI-1640 and 10% heat-inactivated FBS. A CellTiter-Glo (CTG) luminescent based assay (Promega) is used to assess growth of the cells, as a measurement of the ability of the compounds herein to inhibit Ras signaling in the cells. The cells (e.g., 800 per well) are seeded in their respective culture medium in standard tissue culture-treated 384-well format plates (Falcon #08-772-116) or ultra-low attachment surface 384-well format plates (S-Bio #MS-9384WZ). The day after plating, cells are treated with a dilution series (e.g., a 10 point, 3-fold dilution series) of the compounds herein (e.g., approximately 40 μL final volume per well). Cell viability can be monitored (e.g., approximately 6 days later) according to the manufacturer's recommended instructions, where CellTiter-Glo reagent is added (e.g., approximately 10 μL), vigorously mixed, covered, and placed on a plate shaker (e.g., approximately for 20 min) to ensure sufficient cell lysis prior to assessment of luminescent signal. The IC50 values are determined using the four parameter fit. The resulting IC50 value is a measurement of the ability of the test compound to reduce cell growth of Ras-driven cells (e.g., tumor cell lines) in vitro and/or in vivo.

Another experiment has as its system SW620 cells. As to the kind of experiment: Ras cellular assay, cell proliferation SW620. The note with it: Homo sapiens, SW-620. It counts as cell-based.
From the text: as §2

The target of another experiment is T4, K-Ras G12D (Homo sapiens, UniProt P01116, G12D).
T4 construct: made in house; host or cells: E. coli, e.g. BL21 (DE3)
T4 sequence (P01116 1-188 isoform P01116-2 G12D): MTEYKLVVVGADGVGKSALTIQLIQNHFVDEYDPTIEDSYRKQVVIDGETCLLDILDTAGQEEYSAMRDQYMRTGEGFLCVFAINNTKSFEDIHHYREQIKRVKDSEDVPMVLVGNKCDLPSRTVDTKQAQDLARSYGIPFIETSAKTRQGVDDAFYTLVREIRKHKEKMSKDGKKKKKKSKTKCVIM
As to the kind of experiment: PPI-HTRF assay, K-Ras G12D / SOS1 interaction. It counts as biochemical. The conditions noted are these: HTRF, K-Ras G12D; read-out: PPI-HTRF-5 nM (K-Ras G12D IC50). The method, boiled down: as §1

In another experiment the test system is GP2D cells. As to the kind of experiment: Ras cellular assay, cell proliferation GP2D. Type of experiment: cell-based. The method, then:
as §2
ASPC-1 (ATCC CRL-1682), Panc-10.05 (ATCC CRL-2547), A427, GP2d cell lines or any other cell lines comprising a G12D mutation can be used to assess Ras cellular signaling in vitro, e.g., in response to a compound described herein. For example, ASPC-1 culture medium is prepared with RPMI-1640 and 10% heat-inactivated FBS. Panc-10.05 culture medium is prepared with RPMI-1640, 10 Units/mL human recombinant insulin, and 10% FBS. A427 cell culture is prepared with RPMI-1640 and 10% heat-inactivated FBS. A CellTiter-Glo (CTG) luminescent based assay (Promega) is used to assess growth of the cells, as a measurement of the ability of the compounds herein to inhibit Ras signaling in the cells. The cells (e.g., 800 per well) are seeded in their respective culture medium in standard tissue culture-treated 384-well format plates (Falcon #08-772-116) or ultra-low attachment surface 384-well format plates (S-Bio #MS-9384UZ). The day after plating, cells are treated with a dilution series (e.g., a 9 point 3-fold dilution series) of the compounds herein (e.g., approximately 40 μL final volume per well). Cell viability can be monitored (e.g., approximately 5 days later) according to the manufacturer's recommended instructions, where the CellTiter-Glo reagent is added (e.g., approximately 10 μL), vigorously mixed, covered, and placed on a plate shaker (e.g., approximately for 20 min) to ensure sufficient cell lysis prior to assessment of luminescent signal. The IC50 values are determined using the four parameter fit. The resulting IC50 value is a measurement of the ability of the test compound to reduce cell growth of Ras-driven cells (e.g., tumor cell lines) in vitro and/or in vivo.

These results are taken from patent publication US12059425B2, “Heterocyclic compounds and uses thereof” (Kumquat Biosciences Inc., priority 2022, dated 2024).

Structures are written as SMILES.

T3 sequence (P01116 1-188 isoform P01116-2): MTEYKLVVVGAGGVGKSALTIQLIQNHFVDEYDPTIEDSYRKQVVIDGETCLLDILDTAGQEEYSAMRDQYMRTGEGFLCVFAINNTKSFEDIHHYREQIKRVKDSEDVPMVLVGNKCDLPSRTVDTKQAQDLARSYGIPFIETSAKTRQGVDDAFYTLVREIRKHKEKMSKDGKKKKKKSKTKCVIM
T1 sequence (P01116 1-188 isoform P01116-2 G12S): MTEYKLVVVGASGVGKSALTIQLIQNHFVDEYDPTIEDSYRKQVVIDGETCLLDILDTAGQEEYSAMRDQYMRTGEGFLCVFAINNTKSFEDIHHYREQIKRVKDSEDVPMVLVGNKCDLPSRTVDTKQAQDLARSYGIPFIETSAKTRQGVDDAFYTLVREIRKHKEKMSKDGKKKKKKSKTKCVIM

Broadly, the IC50 is the point on the concentration scale where inhibition reaches its midpoint. Turning to `N#Cc1c(N)sc2c(F)ccc(-c3c(Cl)c4c5c(nc(OC[C@@]67CCCN6C[C@H](F)C7)nc5c3F)N3CCC(C#N)CC3CO4)c12` (single isomer, unassigned) [compound 105], the IC50 on K-Ras G12S, at K-Ras G12V, at wildtype K-Ras, in the experiment with A549 cells and with SW620 cells was < 5 µM each time.

As to `N#CCCN1c2nc(OC[C@@]34CCCN3C[C@H](F)C4)nc3c(F)c(-c4ccc(F)c5sc(N)c(C#N)c45)c(Cl)c(c23)OCC2COCC21` (stereo partly drawn) [compound 197, 2-amino-4-(6-chloro-12-(2-cyanoethyl)-4-fluoro-2-(((2R,7aS)-2-fluorotetrahydro-1H-pyrrolizin-7a(5H)-yl)methoxy)-8a,9,11a,12-tetrahydro-8H,11H-furo[3′,4′:6,7][1,5]oxazocino[4,3,2-de]quinazolin-5-yl)-7-fluorobenzo[b]thiophene-3-carbonitrile], the IC50 at K-Ras G12D, at K-Ras G12S, on K-Ras G12V, at wildtype K-Ras, in the experiment on GP2D cells and in the experiment with SW620 cells was < 5 µM each time.

Consider `CN1c2nc(OC[C@@]34CCCN3C[C@H](F)C4)nc3c(F)c(-c4ccc(F)c5sc(N)c(C#N)c45)c(Cl)c(c23)OCC2CCC21` (stereo partly drawn) [compound 187, 2-amino-4-(6-chloro-4-fluoro-2-(((2R,7aS)-2-fluorotetrahydro-1H-pyrrolizin-7a(5H)-yl)methoxy)-11-methyl-8,8a,9,10,10a,11-hexahydrocyclobuta[6,7][1,5]oxazocino [4,3,2-de]quinazolin-5-yl)-7-fluorobenzo[b]thiophene-3-carbonitrile], for which the IC50 at K-Ras G12D, at K-Ras G12S, on K-Ras G12V, at wildtype K-Ras, in the experiment with GP2D cells and in the experiment on SW620 cells was < 5 µM throughout.

On to `N#Cc1c(N)sc2c(F)ccc(-c3c(Cl)c4c5c(nc(OC[C@@]67CCCN6C[C@H](F)C7)nc5c3F)NC3COCC3CO4)c12` (stereo partly drawn) [compound 208, 2-amino-4-(6-chloro-4-fluoro-2-(((2R,7aS)-2-fluorotetrahydro-1H-pyrrolizin-7a(5H)-yl)methoxy)-8a,9,11a,12-tetrahydro-8H,11H-furo[3′,4′:6,7][1,5]oxazocino[4,3,2-de]quinazolin-5-yl)-7-fluorobenzo[b]thiophene-3-carbonitrile], for which the IC50 on K-Ras G12D, at K-Ras G12S, on K-Ras G12V, at wildtype K-Ras, in the experiment on GP2D cells and with SW620 cells was < 5 µM throughout.

`CNCC(C)N1c2nc(OC[C@@]34CCCN3C[C@H](F)C4)nc3c(F)c(-c4ccc(F)c5sc(N)c(C#N)c45)c(Cl)c(c23)OCC2COCC21` (stereo partly drawn) [compound 109, 2-amino-4-(6-chloro-4-fluoro-2-(((2R,7aS)-2-fluorotetrahydro-1H-pyrrolizin-7a(5H)-yl)methoxy)-12-(1-(methylamino)propan-2-yl)-8a,9,11a,12-tetrahydro-8H,11H-furo[3′,4′:6,7][1,5]oxazocino[4,3,2-de]quinazolin-5-yl)-7-fluorobenzo[b]thiophene-3-carbonitrile]: the IC50 on K-Ras G12D was < 5 µM; on K-Ras G12S, < 5 µM; at K-Ras G12V, < 5 µM; at wildtype K-Ras, < 5 µM; with GP2D cells, > 5 µM; with SW620 cells, > 5 µM.

On to `N#Cc1c(N)sc2c(F)ccc(-c3c(Cl)c4c5c(nc(OC[C@@]67CCCN6C[C@H](F)C7)nc5c3F)N3CC5(CCN5C(=O)n5cncn5)CC3CO4)c12` (stereo partly drawn) [compound 131, 2-Amino-4-(10′-chloro-8′-fluoro-6′-(((2R,7aS)-2-fluorotetrahydro-1H-pyrrolizin-7a(5H)-yl)methoxy)-1-(1H-1,2,4-triazole-1-carbonyl)-12′,12a′-dihydro-1′H,3′H-spiro[azetidine-2,2′-pyrrolo[2′,1′:3,4][1,4]oxazepino[5,6,7-de]quinazolin]-9′-yl)-7-fluorobenzo[b]thiophene-3-carbonitrile], for which the IC50 at K-Ras G12S, at K-Ras G12V, at wildtype K-Ras, in the experiment on A549 cells and with SW620 cells was < 5 µM in each case.

Turning to `N#Cc1c(N)sc2c(F)ccc(-c3c(Cl)c4c5c(nc(OCC67CCCN6C[C@H](F)C7)nc5c3F)N3CCCCC3CCO4)c12` (single isomer, unassigned) [compound 117], the IC50 on K-Ras G12S, on K-Ras G12V, at wildtype K-Ras, in the experiment with A549 cells and in the experiment with SW620 cells was < 5 µM in each case.

For the compound `N#Cc1c(N)sc2c(F)ccc(-c3c(Cl)c4c5c(nc(OC[C@@]67CCCN6C[C@H](F)C7)nc5c3F)N3CC(N)CCC3CCO4)c12` (stereo partly drawn) [compound 129, 2-amino-4-(9-amino-3-chloro-1-fluoro-13-(((2R,7aS)-2-fluorotetrahydro-1H-pyrrolizin-7a(5H)-yl)methoxy)-6,6a,7,8,9,10-hexahydro-5H-pyrido[1′,2′:5,6][1,5]oxazocino[4,3,2-de]quinazolin-2-yl)-7-fluorobenzo[b]thiophene-3-carbonitrile], the IC50 on K-Ras G12D was < 5 µM; on K-Ras G12S, < 5 µM; at K-Ras G12V, < 5 µM; on wildtype K-Ras, < 5 µM; in the experiment with GP2D cells, < 5 µM; in the experiment with SW620 cells, > 5 µM.

For `CN(C)CCCN1c2nc(OC[C@@]34CCCN3C[C@H](F)C4)nc3c(F)c(-c4ccc(F)c5sc(N)c(C#N)c45)c(Cl)c(c23)OCC2COCC21` (stereo partly drawn) [compound 209, 2-amino-4-(6-chloro-12-(3-(dimethylamino)propyl)-4-fluoro-2-(((2R,7aS)-2-fluorotetrahydro-1H-pyrrolizin-7a(5H)-yl)methoxy)-8a,9,11a,12-tetrahydro-8H,11H-furo[3′,4′:6,7][1,5]oxazocino[4,3,2-de]quinazolin-5-yl)-7-fluorobenzo[b]thiophene-3-carbonitrile], the IC50 at K-Ras G12D, on K-Ras G12S, at K-Ras G12V, on wildtype K-Ras, in the experiment on GP2D cells and in the experiment with SW620 cells was < 5 µM throughout.

Take `N#Cc1c(N)sc2c(F)ccc(-c3c(Cl)c4c5c(nc(OC[C@@]67CCCN6C[C@H](F)C7)nc5c3F)N3CCC[C@@H]3CC(CO)O4)c12` (single isomer, unassigned) [compound 177]: the IC50 at K-Ras G12D, at K-Ras G12S, on K-Ras G12V, at wildtype K-Ras, with GP2D cells and in the experiment with SW620 cells was < 5 µM throughout.
